We go through 31 compounds from the supplement of paper PMC4649846.

Assay [1] concerns MDA-MB-231. The following applies: incubation time: 72 h. The protocol:
(§1)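 MDA-MB-231 breast cancer cells were transfected with siBRCA1 or non-targeting siControl, then seeded 24 h later at 4000 cells/well in 384-well plates holding 198 drugs at 5 concentrations. Viability was read by CellTiter-Blue after 72 h at 37 °C. Dose-response curves were fitted in Dotmatics to give IC50 and a drug sensitivity score (DSS: area under the curve relative to the area between the 10% threshold and 100% inhibition, normalised by the log of the top response). The dose range is not stated. IC50 values of 8333.3 or 4166.7 nM mark no response (top dose), and 0.8333 nM is the lower limit.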

The test system of assay [2] is MDA-MB-231. The assay can be described thus: drug sensitivity score (DSS); higher = more sensitive; extreme values may be limits of the assay. The note with it: incubation time: 72 h. The protocol: as §1
Setting [3] is: siRNA: siControl (non-targeting).

With `Nc1ncn([C@@H]2O[C@H](CO)[C@@H](O)[C@H]2O)c(=O)n1` [Azacitidine], the “IC50 of cell viability” value with MDA-MB-231 [1] (siRNA: siBRCA1) and in the assay with MDA-MB-231 [1] (setting [3]) was > 4170 nM in each case. Besides, the drug sensitivity score in the assay with MDA-MB-231 [2] (siRNA: siBRCA1) and in the assay with MDA-MB-231 [2] (setting [3]) was 0 in each case.
Take `CNC(=O)c1cc(Oc2ccc(NC(=O)Nc3ccc(Cl)c(C(F)(F)F)c3)c(F)c2)ccn1` [BAY 73-4506]: the “IC50 of cell viability” value in the assay on MDA-MB-231 [1] (siRNA: siBRCA1) was 900 nM; with MDA-MB-231 [1] (setting [3]) it was 813 nM. Besides, the values for the drug sensitivity score in the assay with MDA-MB-231 [2] (siRNA: siBRCA1) and in the assay on MDA-MB-231 [2] (setting [3]) were 4.52 and 2.71, respectively.
The corresponding values for `CC[C@@H]1C(=O)N(C)c2cnc(Nc3ccc(C(=O)NC4CCN(C)CC4)cc3OC)nc2N1C1CCCC1` [BI 2536] are 5.67 nM, 3.08 nM, 23.3 and 24.9.
As for `COc1c(C)cnc(Cn2cnc3c(Cl)nc(N)nc32)c1C` [BIIB021], the figures for the “IC50 of cell viability” value with MDA-MB-231 [1] (siRNA: siBRCA1) and in the assay on MDA-MB-231 [1] (setting [3]) were 869 nM and 1290 nM, respectively. The drug sensitivity score was 8.95 in the assay with MDA-MB-231 [2] (siRNA: siBRCA1) and 9.35 with MDA-MB-231 [2] (setting [3]).
As for `O=C(/C=C/c1cccc(S(=O)(=O)Nc2ccccc2)c1)NO` [Belinostat], the “IC50 of cell viability” value with MDA-MB-231 [1] (siRNA: siBRCA1) was determined as 757 nM; in the assay with MDA-MB-231 [1] (setting [3]) it was 668 nM. The figures for the drug sensitivity score in the assay with MDA-MB-231 [2] (siRNA: siBRCA1) and in the assay on MDA-MB-231 [2] (setting [3]) were 12.2 and 12.9, respectively.
Take `C=C(c1ccc(C(=O)O)cc1)c1cc2c(cc1C)C(C)(C)CCC2(C)C` [Bexarotene]: the “IC50 of cell viability” value in the assay on MDA-MB-231 [1] (siRNA: siBRCA1) and in the assay with MDA-MB-231 [1] (setting [3]) was > 4170 nM each time. Also, the drug sensitivity score with MDA-MB-231 [2] (siRNA: siBRCA1) and in the assay on MDA-MB-231 [2] (setting [3]) was 0 throughout.
As to `CCNC(=O)CCC/C=C\C[C@@H]1[C@@H](/C=C/[C@@H](O)CCc2ccccc2)[C@H](O)C[C@@H]1O` [Bimatoprost], the “IC50 of cell viability” value in the assay on MDA-MB-231 [1] (siRNA: siBRCA1) and in the assay with MDA-MB-231 [1] (setting [3]) was > 4170 nM throughout. For the same compound, the drug sensitivity score in the assay with MDA-MB-231 [2] (siRNA: siBRCA1) and in the assay on MDA-MB-231 [2] (setting [3]) was 0 throughout.
As to `Cc1c(N)nc([C@H](CC(N)=O)NC[C@H](N)C(N)=O)nc1C(=O)N[C@H](C(=O)N[C@H](C)[C@@H](O)[C@H](C)C(=O)N[C@H](C(=O)NCCc1nc(-c2nc(C(=O)NCCC[S+](C)C)cs2)cs1)[C@@H](C)O)[C@@H](OC1OC(CO)C(O)C(O)C1OC1OC(CO)C(O)C(OC(N)=O)C1O)c1cnc[nH]1` (some centres undefined) [Bleomycin], the figures for the “IC50 of cell viability” value in the assay on MDA-MB-231 [1] (siRNA: siBRCA1) and in the assay on MDA-MB-231 [1] (setting [3]) were > 4170 nM and 125 nM, respectively. In addition, the values for the drug sensitivity score in the assay on MDA-MB-231 [2] (siRNA: siBRCA1) and in the assay with MDA-MB-231 [2] (setting [3]) were 0 and 3.28, respectively.
As to `CC(C)C[C@H](NC(=O)[C@H](Cc1ccccc1)NC(=O)c1cnccn1)B(O)O` [Bortezomib], the “IC50 of cell viability” value was 6.91 nM in the assay on MDA-MB-231 [1] (siRNA: siBRCA1) and 18.6 nM with MDA-MB-231 [1] (setting [3]). For the same compound, the results for the drug sensitivity score in the assay on MDA-MB-231 [2] (siRNA: siBRCA1) and in the assay with MDA-MB-231 [2] (setting [3]) were 37.9 and 32.2, respectively.
As to `CCC/C=C/C=C/C(=O)O[C@H]1/C(=C/C(=O)OC)C[C@H]2C[C@H]([C@@H](C)O)OC(=O)C[C@H](O)C[C@@H]3C[C@H](OC(C)=O)C(C)(C)[C@](O)(C[C@@H]4C/C(=C/C(=O)OC)C[C@H](/C=C/C(C)(C)[C@]1(O)O2)O4)O3` [Bryostatin 1], the “IC50 of cell viability” value with MDA-MB-231 [1] (siRNA: siBRCA1) and in the assay with MDA-MB-231 [1] (setting [3]) was 83.3 nM in each case. Moreover, the drug sensitivity score with MDA-MB-231 [2] (siRNA: siBRCA1) and with MDA-MB-231 [2] (setting [3]) was 0 throughout.
For `CS(=O)(=O)OCCCCOS(C)(=O)=O` [Busulfan], the “IC50 of cell viability” value in the assay with MDA-MB-231 [1] (siRNA: siBRCA1) and with MDA-MB-231 [1] (setting [3]) was > 4170 nM each time. Moreover, the drug sensitivity score in the assay with MDA-MB-231 [2] (siRNA: siBRCA1) and in the assay on MDA-MB-231 [2] (setting [3]) was 0 throughout.
In the case of `CC[C@H](Nc1ncnc2[nH]cnc12)c1nc2cccc(F)c2c(=O)n1-c1ccccc1` [CAL-101], the “IC50 of cell viability” value in the assay on MDA-MB-231 [1] (siRNA: siBRCA1) was > 4170 nM; in the assay on MDA-MB-231 [1] (setting [3]), 1090 nM. Also, the drug sensitivity score in the assay on MDA-MB-231 [2] (siRNA: siBRCA1) amounted to 0; with MDA-MB-231 [2] (setting [3]), 2.02.
For `CC(=O)Nc1ccc(C(=O)Nc2ccccc2N)cc1` [CI-994], the “IC50 of cell viability” value in the assay with MDA-MB-231 [1] (siRNA: siBRCA1) was > 4170 nM; in the assay with MDA-MB-231 [1] (setting [3]) it was 865 nM. In addition, the drug sensitivity score with MDA-MB-231 [2] (siRNA: siBRCA1) worked out at 0; with MDA-MB-231 [2] (setting [3]), 2.63.
The corresponding values for `C#Cc1cccc(Nc2ncnc3cc(OC)c(OCCCCCCC(=O)NO)cc23)c1` [CUDC-101] are 433 nM, 321 nM, 14.7 and 16.4.
`CC[C@@]1(O)C(=O)OCc2c1cc1n(c2=O)Cc2cc3ccccc3nc2-1` [Camptothecin]: the “IC50 of cell viability” value in the assay with MDA-MB-231 [1] (siRNA: siBRCA1) worked out at 45.6 nM; in the assay with MDA-MB-231 [1] (setting [3]), 328 nM. For the same compound, the values for the drug sensitivity score in the assay with MDA-MB-231 [2] (siRNA: siBRCA1) and with MDA-MB-231 [2] (setting [3]) were 16.9 and 10.9, respectively.
For the compound `C=CC(=O)Nc1cc2c(Nc3ccc(F)c(Cl)c3)ncnc2cc1OCCCN1CCOCC1` [Canertinib], the “IC50 of cell viability” value came to 2510 nM with MDA-MB-231 [1] (siRNA: siBRCA1) and 1690 nM in the assay with MDA-MB-231 [1] (setting [3]). The results for the drug sensitivity score with MDA-MB-231 [2] (siRNA: siBRCA1) and with MDA-MB-231 [2] (setting [3]) were 5.78 and 7.67, respectively.
The corresponding values for `CCCCCOC(=O)Nc1nc(=O)n([C@@H]2O[C@H](C)[C@@H](O)[C@H]2O)cc1F` [Capecitabine] are > 4170 nM, > 4170 nM, 0 and 0.
Turning to `O=C(O)C1(C(=O)O)CCC1.[NH2-].[NH2-].[Pt+2]` [Carboplatin], the “IC50 of cell viability” value in the assay on MDA-MB-231 [1] (siRNA: siBRCA1) and with MDA-MB-231 [1] (setting [3]) was > 4170 nM each time. Also, the drug sensitivity score in the assay on MDA-MB-231 [2] (siRNA: siBRCA1) and with MDA-MB-231 [2] (setting [3]) was 0 each time.
As to `CC(C)C[C@H](NC(=O)[C@H](CCc1ccccc1)NC(=O)CN1CCOCC1)C(=O)N[C@@H](Cc1ccccc1)C(=O)N[C@@H](CC(C)C)C(=O)[C@@]1(C)CO1` [Carfilzomib], the “IC50 of cell viability” value with MDA-MB-231 [1] (siRNA: siBRCA1) was determined as 4.01 nM; in the assay on MDA-MB-231 [1] (setting [3]) it was 13.6 nM. In addition, the drug sensitivity score was found to be 39.3 in the assay on MDA-MB-231 [2] (siRNA: siBRCA1) and 33.7 in the assay with MDA-MB-231 [2] (setting [3]).
In the same order, the values of `O=NN(CCCl)C(=O)NCCCl` [Carmustine] are > 4170 nM, > 4170 nM, 0 and 0.
The corresponding values for `COc1cc2c(Oc3ccc4[nH]c(C)cc4c3F)ncnc2cc1OCCCN1CCCC1` [Cediranib] are > 4170 nM, > 4170 nM, 0.0221 and 0.
In the same order, the values of `Cc1ccc(-c2cc(C(F)(F)F)nn2-c2ccc(S(N)(=O)=O)cc2)cc1` [Celecoxib] are 1350 nM, > 4170 nM, 3.29 and 0.
Take `O=C(O)CCCc1ccc(N(CCCl)CCCl)cc1` [Chlorambucil]: the “IC50 of cell viability” value with MDA-MB-231 [1] (siRNA: siBRCA1) and in the assay with MDA-MB-231 [1] (setting [3]) was > 4170 nM each time. For the same compound, the drug sensitivity score in the assay on MDA-MB-231 [2] (siRNA: siBRCA1) was determined as 0.465; with MDA-MB-231 [2] (setting [3]) it was 0.
On to `Nc1nc(Cl)nc2c1ncn2[C@H]1C[C@H](O)[C@@H](CO)O1` [Cladribine], for which the “IC50 of cell viability” value in the assay on MDA-MB-231 [1] (siRNA: siBRCA1) was 2880 nM; with MDA-MB-231 [1] (setting [3]), 91.8 nM. Further, the drug sensitivity score came to 5.2 with MDA-MB-231 [2] (siRNA: siBRCA1) and 9.09 in the assay with MDA-MB-231 [2] (setting [3]).
The corresponding values for `Nc1nc(Cl)nc2c1ncn2[C@@H]1O[C@H](CO)[C@@H](O)[C@@H]1F` [Clofarabine] are 82.1 nM, 28.1 nM, 8.22 and 12.5.
Regarding `C[C@@H](Oc1cc(-c2cnn(C3CCNCC3)c2)cnc1N)c1c(Cl)ccc(F)c1Cl` [Crizotinib], the “IC50 of cell viability” value in the assay on MDA-MB-231 [1] (siRNA: siBRCA1) was > 4170 nM; in the assay with MDA-MB-231 [1] (setting [3]), 4070 nM. Besides, the drug sensitivity score was found to be 0.595 in the assay on MDA-MB-231 [2] (siRNA: siBRCA1) and 4.02 in the assay on MDA-MB-231 [2] (setting [3]).
In the same order, the values of `O=P1(N(CCCl)CCCl)NCCCO1` (centres undefined) [Cyclophosphamide] are > 4170 nM, > 4170 nM, 0.0343 and 0.
`Nc1ccn([C@@H]2O[C@H](CO)[C@@H](O)[C@@H]2O)c(=O)n1` [Cytarabine]: the results for the “IC50 of cell viability” value with MDA-MB-231 [1] (siRNA: siBRCA1) and in the assay with MDA-MB-231 [1] (setting [3]) were 591 nM and 294 nM, respectively. Further, the drug sensitivity score in the assay on MDA-MB-231 [2] (siRNA: siBRCA1) came out at 5.84; with MDA-MB-231 [2] (setting [3]), 6.18.
For the compound `CN(C)/N=N/c1[nH]cnc1C(N)=O` [Dacarbazine], the “IC50 of cell viability” value in the assay on MDA-MB-231 [1] (siRNA: siBRCA1) stood at 1330 nM; in the assay on MDA-MB-231 [1] (setting [3]) it was 96.4 nM. Also, the drug sensitivity score with MDA-MB-231 [2] (siRNA: siBRCA1) was 2.68; with MDA-MB-231 [2] (setting [3]), 7.63.
The corresponding values for `Cc1c2oc3c(C)ccc(C(=O)N[C@@H]4C(=O)N[C@H](C(C)C)C(=O)N5CCC[C@H]5C(=O)N(C)CC(=O)N(C)[C@@H](C(C)C)C(=O)O[C@@H]4C)c3nc-2c(C(=O)N[C@@H]2C(=O)N[C@H](C(C)C)C(=O)N3CCC[C@H]3C(=O)N(C)CC(=O)N(C)[C@@H](C(C)C)C(=O)O[C@@H]2C)c(N)c1=O` [Dactinomycin] are 4.19 nM, 2.18 nM, 36.8 and 38.3.
In the same order, the values of `CO[C@@H](C(=O)N1Cc2[nH]nc(NC(=O)c3ccc(N4CCN(C)CC4)cc3)c2C1)c1ccccc1` [Danusertib] are 1910 nM, 1160 nM, 6.5 and 10.1.
